Source: PubChem BioAssay (NCI)
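Following 48 hours of exposure in 96-well plates, responses at five concentrations were used to interpolate endpoints linearly. TGI marks complete inhibition of growth.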

Experiments:
Assay in all cases: NCI tumour cell line growth inhibition, 48 h
[1] = tested on: TK-10 renal
[2] = tested on: U251 CNS
[3] = tested on: HCT-116 colon
[4] = tested on: MDA-MB-435
[5] = tested on: MOLT-4 leukemia
[6] = tested on: BT-549 breast
[7] = tested on: 786-0 renal
[8] = tested on: MCF7 breast
[9] = tested on: M14 melanoma
[10] = tested on: KM12 colon

For `Cn1c2ccccc2c2ccc3c(c21)C(=O)c1ccc2c4ccccc4n(C)c2c1C3=O`, the TGI [1] was > 100 µM, the TGI [2] was > 100 µM and the TGI [3] was > 100 µM. The TGI [4] was > 100 µM, the TGI [5] was > 100 µM and the TGI [6] was > 100 µM. The TGI [7] was > 100 µM, the TGI [8] was > 100 µM and the TGI [9] was > 100 µM. The TGI [10] was > 100 µM.
With `Cc1c(C)n(-c2ccccc2)c2nc(S(C)=O)nc(S(C)=O)c12` (stereo not given) the TGI [1] was 7.36 µM, the TGI [2] was 21.1 µM and the TGI [3] was 4.86 µM. For the same compound, the TGI [4] was 9.76 µM, the TGI [5] was 5.57 µM and the TGI [6] was 4.13 µM. The TGI [7] was 10.1 µM, the TGI [8] was 7.1 µM and the TGI [9] was 6.45 µM. The TGI [10] was 28.1 µM.
Work on `CN(C)CCn1c(=O)c2ccc(NCCCN(C)CCCNc3ccc4c(=O)n(CCN(C)C)c(=O)n5c6ccc(O)cc6c(=O)c3c45)c3c(=O)c4cc(O)ccc4n(c1=O)c23` yielded a TGI [1] of 1.63 µM, a TGI [2] of 0.3 µM and a TGI [3] of 0.49 µM. The TGI [4] was 0.18 µM, the TGI [5] was < 0.0289 µM and the TGI [6] was 0.691 µM. For the same compound, the TGI [7] was 1.05 µM, the TGI [8] was 0.71 µM and the TGI [9] was 0.805 µM. The TGI [10] was 0.553 µM.
In the case of `COC(=O)[C@]1(C)CCC[C@@]2(C)C1CC[C@]13C=C(C(C)C)[C@H](CC21)CC3(Cl)C#N` (stereo not given in full), the TGI [1] is reported as > 100 µM, the TGI [2] is reported as 49.4 µM and the TGI [3] is reported as > 100 µM. For the same compound, the TGI [4] was > 100 µM, the TGI [5] was > 100 µM and the TGI [6] was 86 µM. The TGI [7] was > 100 µM, the TGI [8] was > 100 µM and the TGI [9] was > 100 µM. For the same compound, the TGI [10] was > 100 µM.
With `O=c1c2c3c(sc2[nH]c(=S)n1-c1ccccc1)CCCc1ccc([N+](=O)[O-])cc1-3` the TGI [1] was > 100 µM, the TGI [2] was > 100 µM and the TGI [3] was > 100 µM. For the same compound, the TGI [4] was > 100 µM, the TGI [5] was 52 µM and the TGI [6] was 72.6 µM. For the same compound, the TGI [7] was > 100 µM, the TGI [8] was > 100 µM and the TGI [9] was > 100 µM. For the same compound, the TGI [10] was > 100 µM.
`COC(=O)/C=C(/C=C1/C(C#N)=C(N)N(c2ccc(Cl)cc2)C1(C)/C(=C\C(=O)OC)C(=O)OC)C(=O)OC` (stereo not given) gave a TGI [1] of 81 µM, a TGI [2] of 60.2 µM and a TGI [3] of 31.2 µM. For the same compound, the TGI [4] was 41 µM, the TGI [5] was 78.9 µM and the TGI [6] was 30.2 µM. The TGI [7] was 32.7 µM, the TGI [8] was 46.2 µM and the TGI [9] was 39.1 µM. The TGI [10] was 37 µM.
With `COC(=O)c1ccccc1C1CN=NC12Cc1c(ccc(C)c1C)C2=O` (stereo not given) the TGI [1] was > 100 µM, the TGI [2] was > 100 µM and the TGI [3] was > 100 µM. The TGI [4] was > 100 µM, the TGI [5] was > 100 µM and the TGI [6] was > 100 µM. For the same compound, the TGI [7] was > 100 µM, the TGI [8] was > 100 µM and the TGI [9] was > 100 µM. The TGI [10] was > 100 µM.
In the case of `CN(C)c1ccc(/C=C(\NC(=O)c2ccccc2)C(=O)NC(CC(=O)O)C(=O)O)cc1` (stereo not given), the TGI [1] is reported as > 100 µM, the TGI [2] is reported as > 100 µM and the TGI [3] is reported as > 100 µM. The TGI [4] was > 100 µM, the TGI [5] was > 100 µM and the TGI [6] was > 100 µM. For the same compound, the TGI [7] was > 100 µM, the TGI [8] was > 100 µM and the TGI [9] was > 100 µM. The TGI [10] was > 100 µM.
`COc1ccc2nc(NC(=O)/C(C#N)=C/c3ccccc3)sc2c1` was tested, and the TGI [1] was 88 µM, the TGI [2] was > 100 µM and the TGI [3] was > 100 µM. For the same compound, the TGI [4] was > 100 µM, the TGI [5] was > 100 µM and the TGI [6] was > 100 µM. For the same compound, the TGI [7] was > 100 µM, the TGI [8] was > 100 µM and the TGI [9] was > 100 µM. For the same compound, the TGI [10] was > 73.3 µM.
With `CN1CSC(=S)N(c2cccc(C(F)(F)F)c2)C1` the TGI [1] was 72.3 µM, the TGI [2] was > 100 µM and the TGI [3] was > 100 µM. The TGI [4] was 51.9 µM, the TGI [5] was 57 µM and the TGI [6] was 44.2 µM. For the same compound, the TGI [7] was 73.6 µM, the TGI [8] was 33.3 µM and the TGI [9] was 33.8 µM. The TGI [10] was 50.7 µM.
With `C[n+]1cc2cc(O)c(O)cc2c2ccc3cc(O)c(O)cc3c21` the TGI [1] was > 73.2 µM, the TGI [2] was 9.91 µM and the TGI [3] was 4.21 µM. The TGI [4] was > 100 µM, the TGI [5] was 11.2 µM and the TGI [6] was 9.93 µM. The TGI [7] was 9.21 µM, the TGI [8] was 9.09 µM and the TGI [9] was > 100 µM. The TGI [10] was > 100 µM.
With `CCOC1C=CC(=O)C(CO)O1` (stereo not given) the TGI [1] was 22.7 µM, the TGI [2] was 27.9 µM and the TGI [3] was 17.4 µM. It also gave a TGI [4] of 25.6 µM, a TGI [5] of 21.2 µM and a TGI [6] of 26.1 µM. The TGI [7] was 14.2 µM, the TGI [8] was 17.7 µM and the TGI [9] was 31.8 µM. For the same compound, the TGI [10] was 31.5 µM.
With `CC(C)Oc1cccc(N2C(n3ccnc3)=Nc3ccncc3S2(=O)=O)c1` the TGI [1] was 24.5 µM, the TGI [2] was 28.8 µM and the TGI [3] was 26.8 µM. It also gave a TGI [4] of 32.7 µM, a TGI [5] of 14.8 µM and a TGI [6] of 29 µM. It also gave a TGI [7] of 22.1 µM, a TGI [8] of 24.1 µM and a TGI [9] of 28.2 µM. The TGI [10] was 49.5 µM.
With `Cc1ccccc1-c1nc2c(N)nc(N)nc2nc1N` the TGI [1] was > 100 µM, the TGI [2] was > 100 µM and the TGI [3] was > 100 µM. The TGI [4] was > 100 µM, the TGI [5] was > 100 µM and the TGI [6] was > 100 µM. The TGI [7] was > 100 µM, the TGI [8] was > 100 µM and the TGI [9] was > 100 µM. The TGI [10] was > 100 µM.
`O=C(NCc1ccccc1)c1cc2ccccc2oc1=Nc1cccc(C(F)(F)F)c1` was tested, and the TGI [1] was > 100 µM, the TGI [2] was > 100 µM and the TGI [3] was > 100 µM. For the same compound, the TGI [4] was > 100 µM, the TGI [5] was 92.5 µM and the TGI [6] was > 100 µM. For the same compound, the TGI [7] was > 100 µM, the TGI [8] was > 100 µM and the TGI [9] was > 100 µM. The TGI [10] was > 100 µM.
